Reference: publication PMC9749936, “Synthesis and structure–activity relationship studies of N-terminal analogues of the lipopeptide antibiotics brevicidine and laterocidine” (RSC Medicinal Chemistry, 2022)
Bridge positions count the residues as written; N and C are the ends. Square brackets hold non-standard residues; d marks the D form. Peptide text beside a SMILES is read from it. * marks the point of attachment. Palmitoyl = CCCCCCCCCCCCCCCC(=O)*; Myristoyl = CCCCCCCCCCCCCC(=O)*; Lauroyl = CCCCCCCCCCCC(=O)*; Decanoyl = CCCCCCCCCC(=O)*; dOrn = NCCC[C@@H](N)C(=O)O; Orn = NCCC[C@H](N)C(=O)O; Hexanoyl = CCCCCC(=O)*; Butyryl = CCCC(=O)*

How the values were obtained:
A. baumannii ATCC 17961 = assay type: cell-based, Acinetobacter baumannii; conditions: ATCC 17961, 18 h
In short: (§1)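 Broth microdilution MIC per CLSI guidelines in MHB, with compound from DMSO stocks serially diluted in polypropylene plates.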

S. aureus USA300 = assay type: cell-based, Staphylococcus aureus; conditions: USA300, 18 h
In short: as §1

Sheep red blood cells = assay type: cell-based; conditions: red cells of sheep, 1 h, 64 μg mL^−1
E. coli ATCC 25922 MCR-1 = assay type: cell-based, Escherichia coli; conditions: colistin-resistant strain carrying mcr-1; CLSI broth microdilution in MHB, 18 h at 37 °C, visual inspection; three technical replicates
K. pneumoniae ATCC 13883 = assay type: cell-based, Klebsiella pneumoniae; conditions: ATCC 13883, 18 h
In short: as §1

P. aeruginosa PAO1 = assay type: cell-based, Pseudomonas aeruginosa; conditions: PAO1, 18 h
In short: as §1

E. coli ATCC 25922 = assay type: cell-based, Escherichia coli; conditions: ATCC 25922, 18 h
In short: as §1

SMILES	Antimicrobial activity (MIC) A. baumannii ATCC 17961 (A. baumannii ATCC 17961) [µg/mL]	Antimicrobial activity (MIC) S. aureus USA300 (S. aureus USA300) [µg/mL]	% Hemolytic activity, sheep red blood cells (Sheep red blood cells) [%]	Antimicrobial activity (MIC) E. coli ATCC 25922 MCR-1 (E. coli ATCC 25922 MCR-1) [µg/mL]	Antimicrobial activity (MIC) K. pneumoniae ATCC 13883 (K. pneumoniae ATCC 13883) [µg/mL]	Antimicrobial activity (MIC) P. aeruginosa PAO1 (P. aeruginosa PAO1) [µg/mL]	Antimicrobial activity (MIC) E. coli ATCC 25922 (E. coli ATCC 25922) [µg/mL]
CCCCCCCCCCCCCC(=O)N[C@H](CC(N)=O)C(=O)N[C@H](Cc1ccc(O)cc1)C(=O)N[C@H](Cc1c[nH]c2ccccc12)C(=O)N[C@H](CCCN)C(=O)N[C@@H](CCCN)C(=O)NCC(=O)N[C@H](CCCN)C(=O)N[C@@H](Cc1c[nH]c2ccccc12)C(=O)N[C@@H]1C(=O)N[C@@H]([C@@H](C)CC)C(=O)NCC(=O)N[C@@H](CO)C(=O)O[C@@H]1C [Compound 16] (Myristoyl-[dN][dY][dW][dOrn][Orn]G[dOrn]WTIGS; ester 9-C)	4	>32	18.0	16	32	32	16
CCCCCCCCCCCCCCCC(=O)N[C@H](CC(N)=O)C(=O)N[C@H](Cc1ccc(O)cc1)C(=O)N[C@H](Cc1c[nH]c2ccccc12)C(=O)N[C@H](CCCN)C(=O)N[C@@H](CCCN)C(=O)NCC(=O)N[C@H](CCCN)C(=O)N[C@@H](Cc1c[nH]c2ccccc12)C(=O)N[C@@H]1C(=O)N[C@@H]([C@@H](C)CC)C(=O)NCC(=O)N[C@@H](CO)C(=O)O[C@@H]1C [Compound 17] (Palmitoyl-[dN][dY][dW][dOrn][Orn]G[dOrn]WTIGS; ester 9-C)	32	>32	13.3	>32	>32	>32	>32
CC[C@H](C)[C@@H]1NC(=O)[C@@H](NC(=O)[C@H](Cc2c[nH]c3ccccc23)NC(=O)[C@@H](CCCN)NC(=O)CNC(=O)[C@H](CCCN)NC(=O)[C@@H](CCCN)NC(=O)[C@@H](Cc2c[nH]c3ccccc23)NC(=O)[C@@H](Cc2ccc(O)cc2)NC(=O)[C@H](N)CO)[C@@H](C)OC(=O)CNC(=O)CNC(=O)[C@H](CC(N)=O)NC1=O [Compound 18] (H-[dS][dY][dW][dOrn][Orn]G[dOrn]WTINGG; ester 9-C)	>32	>32	0.2	>32	>32	>32	>32
CC[C@H](C)[C@@H]1NC(=O)[C@@H](NC(=O)[C@H](Cc2c[nH]c3ccccc23)NC(=O)[C@@H](CCCN)NC(=O)CNC(=O)[C@H](CCCN)NC(=O)[C@@H](CCCN)NC(=O)[C@@H](Cc2c[nH]c3ccccc23)NC(=O)[C@@H](Cc2ccc(O)cc2)NC(=O)[C@@H](CO)NC(C)=O)[C@@H](C)OC(=O)CNC(=O)CNC(=O)[C@H](CC(N)=O)NC1=O [Compound 19] (Ac-[dS][dY][dW][dOrn][Orn]G[dOrn]WTINGG; ester 9-C)	>32	>32	0.2	>32	>32	16	>32
CCCC(=O)N[C@H](CO)C(=O)N[C@H](Cc1ccc(O)cc1)C(=O)N[C@H](Cc1c[nH]c2ccccc12)C(=O)N[C@H](CCCN)C(=O)N[C@@H](CCCN)C(=O)NCC(=O)N[C@H](CCCN)C(=O)N[C@@H](Cc1c[nH]c2ccccc12)C(=O)N[C@@H]1C(=O)N[C@@H]([C@@H](C)CC)C(=O)N[C@@H](CC(N)=O)C(=O)NCC(=O)NCC(=O)O[C@@H]1C [Compound 20] (Butyryl-[dS][dY][dW][dOrn][Orn]G[dOrn]WTINGG; ester 9-C)	>32	>32	0.3	32	32	8	16
CCCCCC(=O)N[C@H](CO)C(=O)N[C@H](Cc1ccc(O)cc1)C(=O)N[C@H](Cc1c[nH]c2ccccc12)C(=O)N[C@H](CCCN)C(=O)N[C@@H](CCCN)C(=O)NCC(=O)N[C@H](CCCN)C(=O)N[C@@H](Cc1c[nH]c2ccccc12)C(=O)N[C@@H]1C(=O)N[C@@H]([C@@H](C)CC)C(=O)N[C@@H](CC(N)=O)C(=O)NCC(=O)NCC(=O)O[C@@H]1C [Compound 21] (Hexanoyl-[dS][dY][dW][dOrn][Orn]G[dOrn]WTINGG; ester 9-C)	16	>32	0.2	8	8	4	4
CCCCCCCCCC(=O)N[C@H](CO)C(=O)N[C@H](Cc1ccc(O)cc1)C(=O)N[C@H](Cc1c[nH]c2ccccc12)C(=O)N[C@H](CCCN)C(=O)N[C@@H](CCCN)C(=O)NCC(=O)N[C@H](CCCN)C(=O)N[C@@H](Cc1c[nH]c2ccccc12)C(=O)N[C@@H]1C(=O)N[C@@H]([C@@H](C)CC)C(=O)N[C@@H](CC(N)=O)C(=O)NCC(=O)NCC(=O)O[C@@H]1C [Compound 23] (Decanoyl-[dS][dY][dW][dOrn][Orn]G[dOrn]WTINGG; ester 9-C)	2	>32	2.1	2	2 to 4	2	2
CCCCCCCCCCCC(=O)N[C@H](CO)C(=O)N[C@H](Cc1ccc(O)cc1)C(=O)N[C@H](Cc1c[nH]c2ccccc12)C(=O)N[C@H](CCCN)C(=O)N[C@@H](CCCN)C(=O)NCC(=O)N[C@H](CCCN)C(=O)N[C@@H](Cc1c[nH]c2ccccc12)C(=O)N[C@@H]1C(=O)N[C@@H]([C@@H](C)CC)C(=O)N[C@@H](CC(N)=O)C(=O)NCC(=O)NCC(=O)O[C@@H]1C [Compound 24] (Lauroyl-[dS][dY][dW][dOrn][Orn]G[dOrn]WTINGG; ester 9-C)	2	32	21.5	4	8	8	4
CCCCCCCCCCCCCCCC(=O)N[C@H](CO)C(=O)N[C@H](Cc1ccc(O)cc1)C(=O)N[C@H](Cc1c[nH]c2ccccc12)C(=O)N[C@H](CCCN)C(=O)N[C@@H](CCCN)C(=O)NCC(=O)N[C@H](CCCN)C(=O)N[C@@H](Cc1c[nH]c2ccccc12)C(=O)N[C@@H]1C(=O)N[C@@H]([C@@H](C)CC)C(=O)N[C@@H](CC(N)=O)C(=O)NCC(=O)NCC(=O)O[C@@H]1C [Compound 26] (Palmitoyl-[dS][dY][dW][dOrn][Orn]G[dOrn]WTINGG; ester 9-C)	4	32	46.1	32	>32	32	32
